Laboratory results: patent US20090036540A1, “Guanylhydrazones in Methods of Treatment or Diagnosis as Modulators of Signal Transduction” (Cytokine PharmaSciences, Inc., priority 2003, published 2009)

Legend:
[1] = test system: Peripheral Blood Mononuclear Cells; test: PepChip kinome array: in vitro phosphorylation of peptide array by lysates of LPS-stimulated PBMCs; format: cell-based, human
Description: Peripheral Blood Mononuclear Cells (PBMCs) were isolated from peripheral blood from healthy volunteers using standard density-gradient centrifugation over Ficoll-Paque Plus (Amersham Pharmacia Biotech AB, Uppsala, Sweden) after washing in resuspension in IMDM supplemented with 10% FBS, penicillin, streptomycin and amphotericin (hereafter referred to as complete IMDM).
For kinome array samples, 10^7 PBMCs were suspended in 5 ml media (IMDM supplemented with 1.0% human serum). LPS stimulation consisted of a […] (37° C., 5% CO2) with 100 ng/ml LPS (E. coli, serotype 0111:B4). CNI treated PBMCs were maintained in media dosed with 1.0 μM CNI-1493 (Cytokine PharmaSciences, Inc.) 1 hour before and during incubation for LPS stimulation. Stimulations were terminated by an ice-cold PBS wash. PBMCs were lysed in 200 μl cell lysis buffer (20 mM Tris-HCl (pH 7.5), 150 mM NaCl, 1 mM Na2EDTA, 1 mM EGTA, 1% Triton, 2.5 mM sodium pyrophosphate, 1 mM MgCl2, 1 mM beta-glycerophosphate, 1 mM Na3VO4, 1 mM NaF, 1 μg/ml leupeptin, 1 μg/ml aprotinin, 1 mM PMSF) and the volume of the cell lysate were equalised with dH2O. The cell lysates were subsequently cleared on a 0.22 μm filter. PepChip incubation mix was produced by adding 10 μl of filter-cleared activation mix (50% glycerol, 50 μM ATP, 0.05% v/v Brij-35, 0.25 mg/ml BSA, ^33P-γ-ATP (1000 kBq)). Next, the PepChip mix is added onto the chip and the chip is kept at 37° C. in a humidified stove for 90 minutes. Subsequently, the PepChip was washed once with TBST, twice in 2M NaCl and twice in demineralised H2O and air-dry the PepChip slips. The experiments were performed three times in duplicate. The average inter-experimental variance in relative values was less than 5% for all spots.
The chips were exposed to a phosphoimager plate for 72 hours and the spots were analysed on AIDA analysing software. For graphical visualisation of the spots in FIG. 2 the data of four arrays was averaged to eliminate false positives.

Raf kinase = test: Raf in vitro kinase assay (pMek immunoblot); format: biochemical; details: active Raf kinase, 1 μM Semapimod for 5 and 10 minutes
Description: A commercially available in vitro kinase kit (Upstate, cat#: 17-360) was used to study the direct effect of Semapimod on Raf kinase activity. […] Furthermore, active Raf together with Mek, without Semapimod, served as a positive control. Active Raf without the Mek-substrate, left untreated, served as a negative control. The in vitro kinase reaction was performed at 30 C.° for 20 minutes. Sample buffer was added to terminate the reaction, and loaded on […] SDS-PAGE. The immunoblot was analyzed for pMek expression.
Pan-Raf protein expression was analyzed to test for equal loading. Two experiments were performed and similar results were obtained.

[2] = CRP serum levels of Crohn's disease patients in the Semapimod pilot study; format: in vivo, human
From the text: FIGS. 9A and B show the IHC analysis of Crohn's disease patients who participated in the Semapimod pilot study. […] CRP levels of patient #12 were not affected by Semapimod (e.g. nonresponder). Importantly, pMek1/2 expression was also not affected by Semapimod in this nonresponder. […] This finding correlates with the low CRP levels at baseline (FIG. 9B).

[3] = lysates of Semapimod-treated, lipopolysaccharide-stimulated PBMCs

- Raf kinase activity (Raf kinase): inhibited
- pMek1/2 expression in in vitro kinase assay (Raf kinase; inactive Mek-substrate): reduced pMek1/2 expression
Structure (SMILES): C/C(=N\NC(=N)N)c1cc(NC(=O)CCCCCCCCC(=O)Nc2cc(/C(C)=N/NC(=N)N)cc(/C(C)=N/NC(=N)N)c2)cc(/C(C)=N/NC(=N)N)c1 [Semapimod]
- LPS + CNI: peptide phosphorylation, Kinase not given, Substrate GS ([1]; PBMC lysate, 1.0 μM CNI-1493, 100 ng/ml LPS, Control 9758, LPS 17052): 24415
- LPS + CNI: peptide phosphorylation, Kinase p38, Substrate MAPKAP2 ([1]; PBMC lysate, 1.0 μM CNI-1493, 100 ng/ml LPS, Control 10168, LPS 21440): 1150
- LPS + CNI: peptide phosphorylation, Kinase PKC, Substrate c-Src ([1]; PBMC lysate, 1.0 μM CNI-1493, 100 ng/ml LPS, Control 10728, LPS 10416): 17000
- LPS + CNI: peptide phosphorylation, Kinase PKC, Substrate c-RAF ([1]; PBMC lysate, 1.0 μM CNI-1493, 100 ng/ml LPS, Control 10764, LPS 13640): 9522
- LPS + CNI: peptide phosphorylation, Kinase not given, Substrate Tau ([1]; PBMC lysate, 1.0 μM CNI-1493, 100 ng/ml LPS, Control 15846, LPS 10500): 27753
- LPS + CNI: peptide phosphorylation, Kinase v-Fps, Substrate Caldesmon ([1]; PBMC lysate, 1.0 μM CNI-1493, 100 ng/ml LPS, Control 16002, LPS 22800): 31584
- LPS + CNI: peptide phosphorylation, Kinase and Substrate not given ([1]; PBMC lysate, 1.0 μM CNI-1493, 100 ng/ml LPS, Control 16320, LPS 822): 300
- LPS + CNI: peptide phosphorylation, Kinase not given, Substrate GS ([1]; PBMC lysate, 1.0 μM CNI-1493, 100 ng/ml LPS, Control 16920, LPS 19500): 23664
- LPS + CNI: peptide phosphorylation, Kinase CKII, Substrate GS ([1]; PBMC lysate, 1.0 μM CNI-1493, 100 ng/ml LPS, Control 17680, LPS 5350): 13120
- LPS + CNI: peptide phosphorylation, Kinase Lck, Substrate Tec ([1]; PBMC lysate, 1.0 μM CNI-1493, 100 ng/ml LPS, Control 18096, LPS 13824): 300
- LPS + CNI: peptide phosphorylation, Kinase PKC, Substrate Trop ([1]; PBMC lysate, 1.0 μM CNI-1493, 100 ng/ml LPS, Control 18786, LPS 23230): 40000
- LPS + CNI: peptide phosphorylation, Kinase not given, Substrate GS ([1]; PBMC lysate, 1.0 μM CNI-1493, 100 ng/ml LPS, Control 20736, LPS 20592): 26477
- LPS + CNI: peptide phosphorylation, Kinase p34cdc2, Substrate Lamin B1 ([1]; PBMC lysate, 1.0 μM CNI-1493, 100 ng/ml LPS, Control 21000, LPS 11165): 300
- LPS + CNI: peptide phosphorylation, Kinase not given, Substrate EIF4F ([1]; PBMC lysate, 1.0 μM CNI-1493, 100 ng/ml LPS, Control 21000, LPS 25200): 24624
- LPS + CNI: peptide phosphorylation, Kinase PKC, Substrate BICKS ([1]; PBMC lysate, 1.0 μM CNI-1493, 100 ng/ml LPS, Control 23400, LPS 38086): 15980
- LPS + CNI: peptide phosphorylation, Kinase PKC, Substrate MARCKS ([1]; PBMC lysate, 1.0 μM CNI-1493, 100 ng/ml LPS, Control 23714, LPS 16401): 13426
- LPS + CNI: peptide phosphorylation, Kinase not given, Substrate MBP ([1]; PBMC lysate, 1.0 μM CNI-1493, 100 ng/ml LPS, Control 26208, LPS 36442): 51888
- LPS + CNI: peptide phosphorylation, Kinase not given, Substrate Vimentin ([1]; PBMC lysate, 1.0 μM CNI-1493, 100 ng/ml LPS, Control 26240, LPS 30889): 59840
- LPS + CNI: peptide phosphorylation, Kinase not given, Substrate MBP ([1]; PBMC lysate, 1.0 μM CNI-1493, 100 ng/ml LPS, Control 26481, LPS 23852): 51414
- LPS + CNI: peptide phosphorylation, Kinase p42/44, Substrate MBP ([1]; PBMC lysate, 1.0 μM CNI-1493, 100 ng/ml LPS, Control 28710, LPS 536): 23296
- LPS + CNI: peptide phosphorylation, Kinase not given, Substrate GS ([1]; PBMC lysate, 1.0 μM CNI-1493, 100 ng/ml LPS, Control 31500, LPS 31050): 51102
- LPS + CNI: peptide phosphorylation, Kinase p42/44, Substrate MBP ([1]; PBMC lysate, 1.0 μM CNI-1493, 100 ng/ml LPS, Control 33814, LPS 14514): 26352
- LPS + CNI: peptide phosphorylation, Kinase PKA, Substrate MARCKS ([1]; PBMC lysate, 1.0 μM CNI-1493, 100 ng/ml LPS, Control 34295, LPS 31647): 62514
- LPS + CNI: peptide phosphorylation, Kinase not given, Substrate c-Src ([1]; PBMC lysate, 1.0 μM CNI-1493, 100 ng/ml LPS, Control 34410, LPS 2470): 319
- LPS + CNI: peptide phosphorylation, Kinase not given, Substrate Vimentin ([1]; PBMC lysate, 1.0 μM CNI-1493, 100 ng/ml LPS, Control 37760, LPS 18020): 44200
- LPS + CNI: peptide phosphorylation, Kinase not given, Substrate MBP ([1]; PBMC lysate, 1.0 μM CNI-1493, 100 ng/ml LPS, Control 38634, LPS 36464): 38354
- LPS + CNI: peptide phosphorylation, Kinase not given, Substrate MBP ([1]; PBMC lysate, 1.0 μM CNI-1493, 100 ng/ml LPS, Control 40793, LPS 36600): 55572
- LPS + CNI: peptide phosphorylation, Kinase PKC, Substrate MBP ([1]; PBMC lysate, 1.0 μM CNI-1493, 100 ng/ml LPS, Control 47940, LPS 18624): 15680
- LPS + CNI: peptide phosphorylation, Kinase not given, Substrate MLC-2 ([1]; PBMC lysate, 1.0 μM CNI-1493, 100 ng/ml LPS, Control 48400, LPS 53482): 33674
- LPS + CNI: peptide phosphorylation, Kinase not given, Substrate MBP ([1]; PBMC lysate, 1.0 μM CNI-1493, 100 ng/ml LPS, Control 60630, LPS 62900): 65076
- LPS + CNI: peptide phosphorylation, Kinase PKA, p42/44, Substrate CgA ([1]; PBMC lysate, 1.0 μM CNI-1493, 100 ng/ml LPS, Control 62088, LPS 548): 6700
- capacity to phosphorylate peptides representing consensus sequences for MAP kinase family members [1, 3]: strongly impaired
- phosphorylation of a peptide representing a consensus phosphorylation site for MEK kinase [1, 3]: inhibited
- phosphorylation of a peptide representing the PKC consensus phosphorylation site in c-Raf [1, 3]: not impaired
- CRP, responders ([2]; Crohn's disease patients n=5, all responders): CRP decrease
- CRP levels, nonresponder ([2]; patient #12): not affected
